This note sets out measurements from ChEMBL document CHEMBL5329153, “Is structural hybridization invoking new dimensions for antimalarial drug discovery research?” (RSC Med Chem, 2023).

By pEC50 is commonly meant the EC50 on a negative log10 scale, so that one unit is a factor of ten. By pIC50 is commonly meant −log10 of the IC50, conventionally taken in molar units. A word on the IC50: it is the concentration that inhibits the measured activity by half.

Assay type in all cases: functional, organism-based
The subject of test [1] is Plasmodium falciparum. Briefly: Antimalarial activity against Plasmodium falciparum K1 assessed as parasitic growth inhibition.
Test [2] relates to Plasmodium falciparum. The test can be described thus: Antimalarial activity against Plasmodium falciparum 3D7 assessed as parasitic growth inhibition.
The subject of test [3] is Plasmodium falciparum. Briefly: Antimalarial activity against Plasmodium falciparum Dd2 assessed as parasitic growth inhibition.
In test [4] the test system is Plasmodium falciparum. The test can be described thus: Antimalarial activity against Chloroquine sensitive Plasmodium falciparum D6 assessed as parasitic growth inhibition.
The subject of test [5] is Plasmodium falciparum. Briefly: Antimalarial activity against Chloroquine resistant Plasmodium falciparum W2 assessed as parasitic growth inhibition.

pEC50, pIC50: −log10 of the molar value. In brackets after ≈: the same amount, converted by molar mass.

As to `C#CCCCN(CCNc1ccnc2cc(Cl)ccc12)C(=O)CCC(=O)O[C@@H]1O[C@@H]2O[C@]3(C)CC[C@H]4[C@H](C)CC[C@@H]([C@H]1C)[C@@]24OO3`, the pEC50 is 8.89 with Plasmodium falciparum [1], 8.46 in the test with Plasmodium falciparum [2] and 8.80 with Plasmodium falciparum [3].
On the same counts, the results for `C[C@H]1[C@@H](OCCc2cn(-c3cccc4cc(Cl)ccc34)nn2)O[C@@H]2O[C@]3(C)CC[C@H]4[C@H](C)CC[C@@H]1[C@@]24OO3` are 8.70, 8.06 and 8.35.
In the case of `C[C@H]1[C@H](OC(=O)CCC(=O)NCCNc2ccnc3cc(Cl)ccc23)O[C@@H]2O[C@]3(C)CC[C@H]4[C@H](C)CC[C@@H]1[C@@]24OO3`, the negative-log EC50 (pEC50) with Plasmodium falciparum [1] is 9.11; with Plasmodium falciparum [2] it was 8.57; in the test with Plasmodium falciparum [3] it was 9.00.
For `C[C@H]1[C@H](OC(=O)CCC(=O)OCCc2cn(-c3ccnc4cc(Cl)ccc34)nn2)O[C@@H]2O[C@]3(C)CC[C@H]4[C@H](C)CC[C@@H]1[C@@]24OO3`, the results for the pEC50 in the test on Plasmodium falciparum [1], with Plasmodium falciparum [2] and in the test with Plasmodium falciparum [3] were 8.59, 8.10 and 8.31, respectively.
In the case of `Cc1cc(NCCNc2ccnc3cc(Cl)ccc23)nc(Nc2ccc(C(=O)N3CCCCC3)cc2)n1`, the pIC50 is 7.49 in the test with Plasmodium falciparum [4] and 7.48 in the test on Plasmodium falciparum [5].
On the same counts, the results for `O=C(c1ccc(Nc2nccc(NCCCNc3ccnc4cc(Cl)ccc34)n2)cc1)N1CCCCC1` are 7.49 and 7.48.
For the compound `O=C(c1ccc(Nc2nccc(NCCCCNc3ccnc4cc(Cl)ccc34)n2)cc1)N1CCCC1`, the pIC50 in the test with Plasmodium falciparum [4] is 7.49; in the test with Plasmodium falciparum [5] it was 7.48.
On the same counts, the results for `Cc1cc(NCCCNc2ccnc3cc(Cl)ccc23)nc(Nc2ccc(C(=O)N3CCCCC3)cc2)n1` are 7.49 and 7.48.
In the case of `C#CCCCC(C(=O)NCCOC(=O)CCC(=O)O[C@@H]1O[C@@H]2O[C@]3(C)CC[C@H]4[C@H](C)CC[C@@H]([C@H]1C)[C@@]24OO3)c1ccnc2cc(Cl)ccc12` (some centres undefined), the results for the negative logarithm of the EC50 (pEC50) in the test on Plasmodium falciparum [1], in the test on Plasmodium falciparum [2] and with Plasmodium falciparum [3] were 8.66, 8.22 and 8.32, respectively.
On the same counts, the results for `CCCCc1nc(C)c2ccc(-c3cn(CCOC(=O)CCC(=O)O[C@@H]4O[C@@H]5O[C@]6(C)CC[C@H]7[C@H](C)CC[C@@H]([C@H]4C)[C@@]57OO6)nn3)cc2c1CCCC` are 8.38, 8.04 and 8.00.
For `Cc1cc(Nc2ccc(C(=O)N3CCCCC3)cc2)nc(NCCCNc2ccnc3cc(Cl)ccc23)n1`, the negative-log IC50 (pIC50) in the test on Plasmodium falciparum [4] is 7.49; in the test with Plasmodium falciparum [5], 7.48.
Turning to `C[C@H]1[C@@H](OCCCCc2cn(-c3cccc4cc(Cl)ccc34)nn2)O[C@@H]2O[C@]3(C)CC[C@H]4[C@H](C)CC[C@@H]1[C@@]24OO3`, the results for the negative-log EC50 (pEC50) in the test on Plasmodium falciparum [1], with Plasmodium falciparum [2] and in the test with Plasmodium falciparum [3] were 8.43, 8.08 and 8.21, respectively.
For the compound `Cc1cc(NCCCCNc2ccnc3cc(Cl)ccc23)nc(Nc2ccc(C(=O)N3CCCCC3)cc2)n1`, the pIC50 was 7.49 with Plasmodium falciparum [4] and 7.48 in the test with Plasmodium falciparum [5].
On the same counts, the results for `Cc1cc(NCCCCNc2ccnc3cc(Cl)ccc23)nc(Nc2ccc(C(=O)N3CCSCC3)cc2)n1` are 7.49 and 7.48.
On the same counts, the results for `Cc1cc(Nc2ccc(C(=O)N3CCCC3)cc2)nc(NCCCCNc2ccnc3cc(Cl)ccc23)n1` are 7.49 and 7.48.
On the same counts, the results for `Cc1cc(Nc2ccc(C(=O)N3CCSCC3)cc2)nc(NCCCCNc2ccnc3cc(Cl)ccc23)n1` are 7.49 and 7.48.
Take `Cc1cc(NCCNc2ccnc3cc(Cl)ccc23)nc(Nc2ccc(C(=O)N3CCOCC3)cc2)n1`: the figures for the negative logarithm of the IC50 (pIC50) in the test on Plasmodium falciparum [4] and in the test on Plasmodium falciparum [5] were 7.49 and 7.48, respectively.
On the same counts, the results for `Cc1cc(NCCCNc2ccnc3cc(Cl)ccc23)nc(Nc2ccc(C(=O)N3CCSCC3)cc2)n1` are 7.49 and 7.48.
Regarding `Cc1cc(Nc2ccc(C(=O)N3CCOCC3)cc2)nc(NCCCCNc2ccnc3cc(Cl)ccc23)n1`, the values for the pIC50 with Plasmodium falciparum [4] and in the test with Plasmodium falciparum [5] were 7.49 and 7.48, respectively.
On the same counts, the results for `O=C(c1ccc(Nc2nccc(NCCCNc3ccnc4cc(Cl)ccc34)n2)cc1)N1CCSCC1` are 7.49 and 7.48.
On the same counts, the results for `O=C(c1ccc(Nc2nccc(NCCCCNc3ccnc4cc(Cl)ccc34)n2)cc1)N1CCSCC1` are 7.49 and 7.48.
For `Cc1cc(Nc2ccc(C(=O)N3CCCCC3)cc2)nc(NCCCCNc2ccnc3cc(Cl)ccc23)n1`, the pIC50 in the test with Plasmodium falciparum [4] was 7.49; in the test on Plasmodium falciparum [5] it was 7.48.
Regarding `O=C(c1ccc(Nc2nccc(NCCCCNc3ccnc4cc(Cl)ccc34)n2)cc1)N1CCOCC1`, the pIC50 in the test with Plasmodium falciparum [4] is 7.49; in the test with Plasmodium falciparum [5] it was 7.48.
As to `Cc1cc(NCCCCCCNc2ccnc3cc(Cl)ccc23)nc(Nc2ccc(C(=O)N3CCOCC3)cc2)n1`, the pIC50 is 7.49 in the test with Plasmodium falciparum [4] and 7.48 in the test on Plasmodium falciparum [5].
On the same counts, the results for `O=C(c1ccc(Nc2nccc(NCCCCNc3ccnc4cc(Cl)ccc34)n2)cc1)N1CCCCC1` are 7.49 and 7.48.
With `Cc1cc(Nc2ccc(C(=O)N3CCSCC3)cc2)nc(NCCCNc2ccnc3cc(Cl)ccc23)n1`, the results for the negative-log IC50 (pIC50) in the test on Plasmodium falciparum [4] and in the test with Plasmodium falciparum [5] were 7.49 and 7.48, respectively.
On the same counts, the results for `Cc1cc(NCCNc2ccnc3cc(Cl)ccc23)nc(Nc2ccc(C(=O)N3CCSCC3)cc2)n1` are 7.49 and 7.48.
On the same counts, the results for `Cc1cc(NCCCCCCNc2ccnc3cc(Cl)ccc23)nc(Nc2ccc(C(=O)N3CCSCC3)cc2)n1` are 7.49 and 7.48.
On the same counts, the results for `Cc1cc(Nc2ccc(C(=O)N3CCCC3)cc2)nc(NCCCNc2ccnc3cc(Cl)ccc23)n1` are 7.49 and 7.48.
For the compound `O=C(c1ccc(Nc2nccc(NCCCNc3ccnc4cc(Cl)ccc34)n2)cc1)N1CCCC1`, the negative-log IC50 (pIC50) is 7.49 in the test with Plasmodium falciparum [4] and 7.48 with Plasmodium falciparum [5].
On the same counts, the results for `Cc1cc(NCCCCNc2ccnc3cc(Cl)ccc23)nc(Nc2ccc(C(=O)N3CCCC3)cc2)n1` are 7.49 and 7.48.
On the same counts, the results for `Cc1cc(NCCCNc2ccnc3cc(Cl)ccc23)nc(Nc2ccc(C(=O)N3CCCC3)cc2)n1` are 7.49 and 7.48.
On the same counts, the results for `Cc1cc(NCCCNc2ccnc3cc(Cl)ccc23)nc(Nc2ccc(C(=O)N3CCOCC3)cc2)n1` are 7.49 and 7.48.
For `Cc1cc(NCCCCCCNc2ccnc3cc(Cl)ccc23)nc(Nc2ccc(C(=O)N3CCCCC3)cc2)n1`, the pIC50 in the test with Plasmodium falciparum [4] is 7.49; in the test on Plasmodium falciparum [5] it was 7.48.
On the same counts, the results for `Cc1cc(NCCNc2ccnc3cc(Cl)ccc23)nc(Nc2ccc(C(=O)N3CCCC3)cc2)n1` are 7.49 and 7.48.
On the same counts, the results for `Cc1cc(Nc2ccc(C(=O)N3CCOCC3)cc2)nc(NCCCNc2ccnc3cc(Cl)ccc23)n1` are 7.49 and 7.48.
In the case of `CN(C)c1nc(N)nc(NCCNc2ccnc3cc(Cl)ccc23)n1`, in the test with Plasmodium falciparum [2], the concentration for half-maximal inhibition (IC50) stood at 46.3 µg/mL (≈ 129 µM).
For the compound `O=C(c1ccc(Nc2nccc(NCCCNc3ccnc4cc(Cl)ccc34)n2)cc1)N1CCOCC1`, the results for the negative-log IC50 (pIC50) with Plasmodium falciparum [4] and in the test with Plasmodium falciparum [5] were 7.49 and 7.48, respectively.
On the same counts, the results for `Cc1cc(NCCCCCCNc2ccnc3cc(Cl)ccc23)nc(Nc2ccc(C(=O)N3CCCC3)cc2)n1` are 7.49 and 7.48.
